Where two headings read alike, the source gives them in different places.

The subject of assay [1] is twitch responses of the extensor digitorum of the foot (peroneal nerve stimulation). Nature of the assay: Neuromuscular blocking potency and duration: twitch blockade dose-response in anesthetized rhesus monkeys. It is filed as in vivo, rhesus monkey (Macaca mulatta). Conditions: for ED95: Macaca mulatta; for Duration (min ± SD): at the actual dose administered, injection to recovery of twitch to 95% of control. As for the experimental part:
(§1) Selected NMBA compounds were tested as described in PCT/US2010/000796 application by an inventor herein, published as WO2010/107488, which is incorporated by reference, see pages 66-78. Dose-response curves for twitch blockade by test compounds were generated as described. […] Successive doses were separated by at least three estimated half lives beyond complete recovery of the previous dose to TOF of 110-120%, which is normal for these monkeys. Only the first one or two doses yielding 5 to 99% blockade were included from any single experiment for computation of dose-response data. Comparative studies of spontaneous recovery versus antagonism/reversal were done at least 3 estimated half-lives following dose-response studies. ED50 and ED95 were computed from the regression of log dose vs. the logit of percentage blockade of twitch.
Experiments were approved by the Institutional Animal Care and Use Committee of Weill Medical College of Cornell University (New York, N.Y.) and of Albany Medical College (Albany, N.Y.), where the studies were conducted. A colony of 10 adult male monkeys (Macaca mulatta) weighing 8-18 kg was studied at ˜6 week intervals. Animals were housed and cared for in accordance with the Guide for Care and Use of Laboratory Animals (National Research Council, Washington, D.C.). They were fed a standard Old World monkey diet, enriched with fruits and vegetables, and other dietary novelties and were followed throughout the study to verify normal health by physical examination, body weight, and clinical laboratory studies (Complete Blood Count, Blood Urea Nitrogen and creatinine, and liver function tests).
(§2) On the day of each study, monkeys received ketamine (7-10 mg/kg i.m.) followed by tracheal intubation under topical anesthesia with 4% lidocaine. Ventilation was controlled at 10 mL/kg and 20 breaths/min with isoflurane (1.0-2.0%) and N2O/O2 (2:1 mixture). Ringers lactate was administered at ˜10 ml kg^−1 h^−1. Arterial pressure was monitored from a femoral, superficial tibial, or radial (22 gauge) cannula. Heart rate was measured by tachograph from the arterial pulse wave. Core temperature was kept at 36.5-38.0° C. by warming blankets. Electrocardiogram and pulse oximetry were monitored continuously.
(§3) Needle electrodes (25 gauge) transmitting square-wave pulses of 0.2 msec duration at supramaximal voltage which were generated by a Grass S-88 stimulator (Grass Instruments, Quincy, Mass.) were placed at the peroneal nerve at the knee to elicit twitch responses of the extensor digitorum of the foot at 0.15 Hz. A small slip (10-20%) of the tendon was dissected free under sterile technique and tied to a Grass FT 10 force transducer (Grass Instruments, Quincy, Mass.) at a baseline tension of 50 gm. Train-of four stimulation (TOF, 2 Hz for 2 sec) was interposed at appropriate points, especially 1-2 min prior to NMBA dosing and following recovery of twitch to 95% of baseline, where TOF was subsequently evaluated every 1-2 min.
Recordings of circulatory and neuromuscular data were made on a Grass 7B polygraph (Grass Instruments). A baseline period of 15-20 min was allowed for stabilization of recordings prior to dosing.^2
Dose-response curves for twitch blockade by gantacurium, CW 002, CW 011, cisatracurium, CW002-Cys, NB 938-69, NB 1064-81, NB 802-17 (CW 001), NB 832-65, and NB 1163-79, structures of which are all shown above, were generated as follows. […] Successive doses were separated by at least three estimated half lives beyond complete recovery of the previous dose to TOF of 110-120%, which is normal for these monkeys. Only the first one or two doses yielding 5 to 99% blockade were included from any single experiment for computation of dose-response data.
ED 50 and ED 95 were computed from the regression of log dose vs. the logit of percentage blockade of twitch.

Assay [2] shares this test system. Put plainly: Spontaneous recovery versus reversal of neuromuscular blockade by cysteine in monkeys. Type of assay: in vivo, rhesus monkey (Macaca mulatta). Particulars: Table 1; reversal of the blockade by cysteine. As for the experimental part:
as §1, §2, §3
Comparative studies of spontaneous recovery versus antagonism/reversal were done at least 3 estimated half-lives following dose-response studies.

[3] abbreviates: Table 1, calculated dose for 95% block of twitch, monkeys, read-out: ED 95.
Where [4] appears, read: Table 3, dose 0.064 ± 0.010 (gantacurium) or 0.060 ± 0.012 mg/kg (CW1759-50).

For `COc1cc2c(cc1OC)[C@@H](Cc1cc(OC)c(OC)c(OC)c1)[N@+](C)(CCCOC(=O)/C(Cl)=C/C(=O)OCCC[N+]1(Cc3cc(OC)c(OC)c(OC)c3)CCCC1)CC2` [Compound 1326-69], in assay [1] (setting [3]), the ED95 was 0.11 mg/kg. The “Duration (min ± SD)” value in assay [1] (Table 1) worked out at 4.5 ± 1.8 min. The “Reversibility (Cysteine)” value in assay [2] is given as “Yes”.

For the compound `COc1cc2c(cc1OC)[C@@H](Cc1cc(OC)c(OC)c(OC)c1)[N@+](C)(CCCOC(=O)/C(Cl)=C/C(=O)OCCC[N+]1(Cc3cc(OC)c(OC)c(OC)c3)CCCCC1)CC2` [Compound 1343-05], the ED95 in assay [1] was found to be 0.07 mg/kg. Also, the “Duration (min ± SD)” value in assay [1] (Table 1) was found to be 6.7 ± 2.1 min. Further, the “Reversibility (Cysteine)” value in assay [2] is “Yes”.

`COc1ccc(C[C@@H]2c3cc(OC)c(OC)cc3CC[N@@+]2(C)CCCOC(=O)/C=C\C(=O)OCCC[N+]2(Cc3cc(OC)c(OC)c(OC)c3)CCCC2)cc1OC` [Compound 1343-13]: the ED95 in assay [1] came out at 0.06 mg/kg. In addition, the “Duration (min ± SD)” value in assay [1] (Table 1) turned out to be 8.8 ± 2.6 min. The “Reversibility (Cysteine)” value in assay [2] was “Yes”.

`COc1ccc(C[C@@H]2c3cc(OC)c(OC)cc3CC[N@@+]2(C)CCCOC(=O)/C=C\C(=O)OCCC[N+]2(Cc3ccc(OC)c(OC)c3)CCCC2)cc1OC` [Compound 1390-80]: the ED95 in assay [1] (setting [3]) is 0.07 mg/kg. In addition, the “Duration (min ± SD)” value in assay [1] (Table 1) is reported as 9.0 ± 2.1 min. In assay [2], the “Reversibility (Cysteine)” value is given as “Yes”.

`COc1ccc(C[C@@H]2c3cc(OC)c(OC)cc3CC[N@@+]2(C)CCCOC(=O)/C=C\C(=O)OCCC[N+]2(Cc3ccc(OC)c(OC)c3OC)CCCC2)cc1OC` [Compound 1449-35] gave an ED95 in assay [1] of 0.126 mg/kg. In assay [1] (Table 1), the “Duration (min ± SD)” value was 5 min. In addition, the “Reversibility (Cysteine)” value in assay [2] is reported as “Yes”.

`COc1ccc(C[N+]2(CCCOC(=O)/C=C\C(=O)OCCC[N@+]3(C)CCc4cc(OC)c(OC)cc4[C@H]3Cc3ccc(OC)c(OC)c3)CCCC2)cc1` [Compound 1521-28] came in with an ED95 in assay [1] of 0.335 mg/kg. Moreover, the “Duration (min ± SD)” value in assay [1] (Table 1) is recorded as 6.5 min. Moreover, the “Reversibility (Cysteine)” value in assay [2] is “Yes”.

`COc1ccc(C[C@@H]2c3cc(OC)c(OC)cc3CC[N@@+]2(C)CCCOC(=O)/C(Cl)=C/C(=O)OCCC[N+]2(Cc3ccc(OC)c(OC)c3)CCOCC2)cc1OC` [Compound 1521-74]: the ED95 in assay [1] is 0.16 mg/kg. Also, the “Duration (min ± SD)” value in assay [1] (Table 1) was determined as 4.3 ± 1.1 min. For the same compound, the “Reversibility (Cysteine)” value in assay [2] is “Yes”.

The compound `COc1ccc(C[C@@H]2c3cc(OC)c(OC)cc3CC[N@@+]2(C)CCCOC(=O)/C=C\C(=O)OCCC[N+]2(Cc3ccc4c(c3)OCCO4)CCOCC2)cc1OC` [Compound 1521-78] yielded an ED95 in assay [1] of 0.05 mg/kg. The “Duration (min ± SD)” value in assay [1] (Table 1) is 12.1 ± 2.1 min. Further, the “Reversibility (Cysteine)” value in assay [2] is on record as “Yes”.

The compound `COc1ccc(C[N+]2(CCCOC(=O)/C=C(\Cl)C(=O)OCCC[N@+]3(C)CCc4cc(OC)c(OC)cc4[C@H]3Cc3cc(OC)c(OC)c(OC)c3)CCOCC2)cc1OC` [Compound 1566-01] displayed an ED95 in assay [1] of 0.61 mg/kg. Further, the “Duration (min ± SD)” value in assay [1] (Table 1) stood at 8 min. Besides, the “Reversibility (Cysteine)” value in assay [2] is listed as “Yes”.

The compound `COc1ccc(C[C@@H]2c3cc(OC)c(OC)cc3CC[N@@+]2(C)CCCOC(=O)/C(Cl)=C/C(=O)OCCC[N+]2(Cc3cc(OC)c(OC)c(OC)c3)CCOCC2)cc1OC` [Compound 1566-22] gave an ED95 in assay [1] of 0.19 mg/kg. For the same compound, the “Duration (min ± SD)” value in assay [1] (Table 1) worked out at 3.7 ± 0.3 min. Moreover, the “Reversibility (Cysteine)” value in assay [2] is reported as “Yes”.

In assay [1], `COc1cc2c(cc1OC)[C@@H](Cc1cc(OC)c(OC)c(OC)c1)[N@+](C)(CCCOC(=O)/C(Cl)=C/C(=O)OCCC[N+]1(Cc3ccc4c(c3)OCCO4)CCOCC1)CC2` [Compound 1598-46] registered an ED95 of 0.1 mg/kg. Further, the “Duration (min ± SD)” value in assay [1] (Table 1) was 6.8 ± 2.3 min. Further, the “Reversibility (Cysteine)” value in assay [2] was “Yes”.

In the case of `COc1ccc(C[C@@H]2c3cc(OC)c(OC)cc3CC[N@@+]2(C)CCCOC(=O)/C=C\C(=O)OCCC[N+]2(Cc3ccc(OC)cc3)CCOCC2)cc1` [Compound 1625-05], the ED95 in assay [1] is 0.09 mg/kg. In assay [1] (Table 1), the “Duration (min ± SD)” value came to 6 min. Further, in assay [2], the “Reversibility (Cysteine)” value is listed as “Yes”.

On to `COc1ccc(C[C@@H]2c3cc(OC)c(OC)cc3CC[N@@+]2(C)CCCOC(=O)/C=C\C(=O)OCCC[N+]2(Cc3cc(OC)c(OC)c(OC)c3)CCOCC2)cc1` [Compound 1759-58], for which the ED95 in assay [1] worked out at 0.064 mg/kg. Moreover, the “Duration (min ± SD)” value in assay [1] (Table 1) was in the range of 6 to 8 min. Moreover, the “Reversibility (Cysteine)” value in assay [2] is listed as “Yes”.

Turning to `COc1ccc2c(c1)CC[N@@+](C)(CCCOC(=O)/C=C\C(=O)OCCC[N+]1(Cc3ccc(OC)c(OC)c3)CCOCC1)[C@@H]2Cc1ccc(OC)c(OC)c1` [Compound 1759-85], the ED95 in assay [1] (setting [3]) is 0.22 mg/kg. Moreover, the “Duration (min ± SD)” value in assay [1] (Table 1) is 5.4 ± 1.3 min. In addition, the “Reversibility (Cysteine)” value in assay [2] is given as “Yes”.

For `COc1cc2c(cc1OC)[C@H](c1cc(OC)c(OC)c(OC)c1)[N@@+](C)(CCCOC(=O)/C=C(\Cl)C(=O)OCCC[N@+]1(C)CCc3cc(OC)c(OC)cc3[C@H]1Cc1cc(OC)c(OC)c(OC)c1)CC2` [Gantacurium, gantacurium, reference compound], in assay [1] (setting [4]), the “Blockade (%)” value turned out to be 99.2 ± 0.5%, the “Onset” value is 97.1 ± 11.7 s and the “Total Duration” value is given as 7.4 ± 1.9 min. Also, the “ED95 in a control study” value in assay [1] (rhesus monkeys, control study for comparison) was found to be 0.063 ± 0.0021 mg·kg.

Source of the values: US9156826B2, “Asymmetrical reversible neuromuscular blocking agents of ultra-short, short, or intermediate duration” (Cornell University, priority 2012, dated 2015).
